Patent US9782394B2, “Inhibitors for ERG oncogene positive cancers” (The Henry M. Jackson Foundation for the Advancement of …, priority 2014, dated 2017)

How the values were obtained:
VCaP cells = assay: Cell growth inhibition, VCaP; type: cell-based; settings: for inhibition of cell growth: VCaP cells in culture, 1 μM and 10 μM
Procedure: (§1) 48 hours following plating of cells, the appropriate test compound is added to each well of the tissue culture dish at a predetermined concentration. The medium was replenished every 24 hours with fresh growth medium containing the same concentration of the same test compound for indicated period of the cell growth inhibition assay. Percent cell growth inhibition was calculated using a hemocytometer for estimating cell density in each of the test wells of the tissue culture dish and trypan blue dye exclusion microscopy and photography to estimate the fraction of viable cells in each test well.
(§2) The protein inhibition studies described above indicate that ERGi-USU is a selective inhibitor of ERG expression. To investigate whether ERGi-USU selectively arrested the growth of ERG positive cancer cells without arresting the growth of ERG negative cancer cells, a cell growth inhibition study was carried out using the following cancer and normal cell lines: ERG positive cancer cells (VCaP, COLO320, MOLT-4 and KG-1) cancer cells, ERG negative cancer cells (LNCaP, MDA PCa2b and LAPC4) cancer cells, normal prostate RWPE-1 and BPH-1 cells and normal endothelial HUVEC cells. Each cell line was cultured to achieve cells in logarithmic growth and these cells were then plated in 10 cm wells of a tissue culture dishes at a cell density of 2×10^6 cells per well. The plated cells were contacted with 0, 0.1, 0.5, 1.0, 5.0, and 10 μM concentrations of ERGi-USU for a period of 2, 4, 6 and 8 days. At the end of each time period, cells are recovered from the test plate, washed and the cell density and viability determined using a hemocytometer and trypan blue dye staining method. Cell growth inhibition was expressed as a graph correlating cell number to the concentration of ERGi-USU.
(§3) FIG. 4 illustrates the results of cell growth inhibition studies that were used to calculate the concentration of ERGi-USU needed for inhibiting 50% of the growth (IC50) of the cells mentioned above. As illustrated by this figure, ERGi-USU was a potent inhibitor of the growth of ERG positive cancer cells in culture.

LNCaP cells = assay: Cell growth inhibition, LNCaP; type: cell-based; settings: for inhibition of cell growth: ERG negative LNCaP cells, 1 μM and 10 μM
Procedure: as §1, §2, §3

ERG protein = molecular target: T1, ERG protein (Homo sapiens, UniProt P11308); assay: In-cell Western primary screen for inhibitors of ERG expression in VCaP cells; type: cell-based; settings: single 1 μM dose, 48 hours, duplicate screen
T1 construct: contacting a TMPRSS2-ERG fusion positive prostate cancer (VCaP) cell line with a fixed concentration of each compound; host or cells: VCaP
T1 sequence (P11308 33-479 limits assumed): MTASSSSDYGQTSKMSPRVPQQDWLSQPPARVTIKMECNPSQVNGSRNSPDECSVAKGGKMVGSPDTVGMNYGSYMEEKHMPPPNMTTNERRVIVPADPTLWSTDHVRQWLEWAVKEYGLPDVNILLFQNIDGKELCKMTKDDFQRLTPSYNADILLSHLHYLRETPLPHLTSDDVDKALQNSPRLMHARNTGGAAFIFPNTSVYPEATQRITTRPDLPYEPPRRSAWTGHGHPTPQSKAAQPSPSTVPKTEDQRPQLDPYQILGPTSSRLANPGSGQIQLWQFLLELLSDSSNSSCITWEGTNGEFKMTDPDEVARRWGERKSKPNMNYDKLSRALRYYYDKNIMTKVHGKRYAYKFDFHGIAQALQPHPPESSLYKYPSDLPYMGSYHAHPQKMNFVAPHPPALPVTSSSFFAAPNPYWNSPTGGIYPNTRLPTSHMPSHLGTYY
Excerpt: To identify ERG specific small molecule inhibitors, the present inventors screened a library of small molecule compounds, by contacting a TMPRSS2-ERG fusion positive prostate cancer (VCaP) cell line with a fixed concentration of each compound in the small molecule library. ERG protein expression was monitored using an In-cell Western blot assay (LI-COR Biosciences, Lincoln, Nebr.), using a highly specific ERG monoclonal antibody (CPDR ERG-mAb; 9FY) for detection. See Furusato et al., Prostate Cancer Prostatic Dis., 13:228-372 (2010); Mohamed et al., J. Cancer, 1:197-208, (2010); Miettinen et al., Am. J. Surg Pathol., 35:432-41 (2011); and U.S. patent publication No. 2012/0135018A1.
The TMPRSS2-ERG fusion positive prostate cancer cell line, VCaP (ATCC), was used to identify small molecule inhibitors of ERG expression. […] The inhibition of ERG expression was evaluated by an In-cell Western blot assay (LI-COR Biosciences, Lincoln, Nebr.) using the ERG specific CPDR ERG-MAb as further described below. […]
Inhibition of ERG expression by the test compounds was determined by an In-cell Western assay (LI-COR Biosciences, Lincoln, Nebr.). […]
The tissue culture plates were imaged on a Li-Cor Odyssey Infrared Imaging System and infrared signals were measured to provide values for ERG expression and cell number via DNA staining. […]

ERG mRNA = assay: Quantitative RT-PCR analysis of ERG transcripts in VCaP cells; type: cell-based, human; settings: 1 μM, 24 hours
Procedure: The ERG inhibitors identified by the primary screen were used in a quantitative RT-PCR assay to evaluate their ability to inhibit ERG mRNA expression. Briefly, VCaP cells were treated at a concentration of 1 μM with each of the ten compounds for 24 hours. Following incubation with the test compounds the cells are lysed and the total RNA isolated. 200 ng of the total RNA was used for analysis of ERG transcripts by qRT-PCR using a pair of ERG primers specific for the coding sequence of tERG for analysis.

AR = assay: Western blot analysis of AR expression in prostate cancer cells; type: cell-based; settings: 0.1-10 μM
Procedure: (§4) Cultured cells were treated at specific dosages with each of the test ERG inhibitors. Following incubation of the treated cells for indicated time period, cells were lysed using Mammalian Protein Extraction Reagent (M-PER; Pierce, Rockford, Ill.) containing a protease inhibitor cocktail and phosphatase inhibitor cocktails I & III (Sigma, St Louis, Mo.). Cell lysates containing 50 μg of total protein were electrophoresed through 4-12% Bis-Tris Gel (Invitrogen, Carlsbad, Calif.) and the cellular proteins were transferred to PVDF membrane (Invitrogen, Carlsbad, Calif.). Membranes were incubated at 4° C. for 12 hours with primary antibodies for AR, PSA, GAPDH, α-Tubulin, apoptosis markers and cell cycle regulators. Following exposure to primary antibodies, the membranes were washed with buffer (three times, 5 minutes each at room temperature) followed by incubation with relevant secondary antibodies for 1 hour at 24° C. Finally, the membranes were washed with buffer and developed using the ECL Western blot detection reagent (GE Health Care, Buckinghamshire, UK).
(§5) Briefly, ERG positive VCaP cells and ERG negative LNCaP, MDA PCa2b and LAPC4 cells in logarithmic growth were plated in 10 cm tissue culture dish at a cell density of 2×10^6 cells per dish. The plated cells were contacted with 0, 0.1, 0.5, 1.0, 5.0, and 10 μM concentrations of ERGi-USU for a period of 48 hours. Cells from each dish were then processed for Western blot analysis and alterations in the expression of ERG protein were monitored.

PSA = assay: Western blot analysis of PSA expression in prostate cancer cells; type: cell-based; settings: 0.1-10 μM
Procedure: as §4, §5

COLO320 cells = assay: Cell growth inhibition, COLO320; type: cell-based; settings: Homo sapiens, COLO 320; COLO320, ERG positive colon adenocarcinoma; read-out: Cell growth inhibition (ERGi-USU: IC50)
Procedure: as §1
(§6) The protein inhibition studies described above indicate that ERGi-USU is a selective inhibitor of ERG expression. […] At the end of each time period, cells are recovered from the test plate, washed and the cell density and viability determined using a hemocytometer and trypan blue dye staining method. Cell growth inhibition was expressed as a graph correlating cell number to the concentration of ERGi-USU. […]

MOLT-4 cells = assay: Cell growth inhibition, MOLT-4; type: cell-based; settings: Homo sapiens; MOLT-4, ERG positive acute lymphoblastic leukemia; read-out: Cell growth inhibition (ERGi-USU: IC50)
Procedure: as §1, §6

KG-1 cells = assay: Cell growth inhibition, KG-1; type: cell-based; settings: Homo sapiens; KG-1, ERG positive myeloid leukemia; read-out: Cell growth inhibition (ERGi-USU: IC50)
Procedure: as §1, §6

MDA PCa2b cells = assay: Cell growth inhibition, MDA PCa2b; type: cell-based; settings: MDA-PCa-2b, ERG negative prostate cancer, read-out: Cell growth inhibition (ERGi-USU: IC50)
Procedure: as §1, §6

LAPC4 cells = assay: Cell growth inhibition, LAPC4; type: cell-based; settings: Homo sapiens; LAPC4, ERG negative metastatic prostate cancer; read-out: Cell growth inhibition (ERGi-USU: IC50)
Procedure: as §1, §6

RWPE-1 cells = assay: Cell growth inhibition, RWPE-1; type: cell-based; settings: Homo sapiens; RWPE-1, normal prostate; read-out: Cell growth inhibition (ERGi-USU: IC50)
Procedure: as §1, §6

BPH-1 cells = assay: Cell growth inhibition, BPH-1; type: cell-based; settings: Homo sapiens; BPH-1, normal prostate; read-out: Cell growth inhibition (ERGi-USU: IC50)
Procedure: as §1, §6

HUVEC cells = assay: Cell growth inhibition, HUVEC; type: cell-based; settings: Homo sapiens, ERG positive normal endothelial, read-out: Cell growth inhibition (ERGi-USU: IC50)
Procedure: as §1, §6

VCaP xenograft tumors = assay: VCaP xenograft tumor growth inhibition in nude mice; type: in vivo; settings: male nude mice, 150 mg/kg intraperitoneally 3 times per week, versus vehicle control and 100 mg/kg
Procedure: Male athymic nude mice 6-8 weeks old and weighing 27 to 30 g were purchased from Charles River Laboratories. ERG harboring prostate cancer cells (VCaP) were trypsinized and washed twice with ice-cold PBS, and resuspended in ice-cold 50% matrigel in serum-free DMEM medium. A total of 4×10^6 cells/0.1 ml/mouse were subcutaneously injected into lower right dorsal flank of the mice. Prior to injection, mice were anesthetized with inhalation anesthesia (isoflurane). Tumor growth was monitored weekly after injection. Three weeks later when tumors were palpable mice were randomly separated into 2 experimental groups and one control group of 7 mice in each group. In the treatment groups mice were injected intraperitoneally (I.P) with 100 mg/kg of ERGi-USU or 150 mg/kg of ERGi-USU while the control group were injected with vehicle (1:1 [v/v], DMSO/PEG300) only. Growth in tumor volume was recorded weekly by digital caliper measurements and tumor volumes calculated using the ½ (L×W^2) formula, where L=length of tumor and W=width. Tumor volumes were compared between treated and control groups with repeated measurements and statistical significance of the results between the groups computed using students t-test and p values calculated.
Male nude mice were injected with about 4×10^6 VCaP cells and tumor growth was monitored. […] Tumor growth was monitored weekly.

[1] = AR positive/ERG negative LNCaP, MDA PCa2b and LAPC4 cells, 48 hours

`Oc1ccc2ccccc2c1/N=N/c1ccccn1` [ED-1] was tested, and the “inhibition of cell growth” value (VCaP cells) was “inhibited the growth of VCaP prostate cancer cells” and the “inhibition of cell growth” value (LNCaP cells) was “no measurable inhibitory effect”.

With `Nc1c(O)ccc2ccccc12` [ED-2] the “inhibition of cell growth” value (VCaP cells) was “inhibited the growth of VCaP prostate cancer cells” and the “inhibition of cell growth” value (LNCaP cells) was “no measurable inhibitory effect”.

With `NC(c1ccccc1)c1c(O)ccc2ccccc12` (stereo not drawn) [ED-3] the “inhibition of cell growth” value (VCaP cells) was “inhibited the growth of VCaP prostate cancer cells” and the “inhibition of cell growth” value (LNCaP cells) was “no measurable inhibitory effect”.

In the case of `Oc1ccc2ccccc2c1/N=N/c1nccs1` [ERGi-USU, 1-(thiazol-2-yldiazenyl)naphthalene-2-ol], the “inhibition of ERG protein expression (In-cell Western, normalized by cell number)” value (ERG protein) is reported as “inhibitors of ERG protein expression”, the “inhibition of ERG mRNA expression (qRT-PCR)” value (“inhibition … (qRT-PCR)” for short) (ERG mRNA) is reported as “inhibitors of ERG-mRNA expression” and the “inhibition of AR protein expression” value (AR; [1]) is reported as “does not inhibit”. The “inhibition of AR protein expression” value (AR; VCaP cells) was “inhibits expression of PSA, and AR proteins”, the “inhibition of PSA protein expression” value (PSA; [1]) was “does not inhibit” and the “inhibition of PSA protein expression” value (PSA; VCaP cells) was “inhibits expression of PSA, and AR proteins”. For the same compound, the IC50 (VCaP cells; Homo sapiens, VCaP, ERG positive metastatic prostate cancer, read-out: Cell growth inhibition (ERGi-USU: IC50)) was 300 nM, the IC50 (COLO320 cells) was 300 nM and the IC50 (MOLT-4 cells) was 50 nM. The IC50 (KG-1 cells) was 200 nM, the IC50 (LNCaP cells; Homo sapiens, LNCaP, ERG negative metastatic prostate cancer, read-out: Cell growth inhibition (ERGi-USU: IC50)) was greater than 10000 nM and the IC50 (MDA PCa2b cells) was greater than 10000 nM. For the same compound, the IC50 (LAPC4 cells) was greater than 10000 nM, the IC50 (RWPE-1 cells) was greater than 10000 nM and the IC50 (BPH-1 cells) was greater than 10000 nM. For the same compound, the IC50 (HUVEC cells) was greater than 10000 nM and the tumor volume (VCaP xenograft tumors) was “exhibited the smallest volumes”.

With `Cc1[nH]ccc2c1[nH]c1cc(=O)ccc12` [NSC72292] the “inhibition … (qRT-PCR)” value (ERG mRNA) was “inhibitors of ERG-mRNA expression”.

For `Oc1ccc2ccccc2c1/N=N/c1nccs1` [NSC99629, reference compound], the “inhibition … (qRT-PCR)” value (ERG mRNA) was “inhibitors of ERG-mRNA expression”, the “inhibition of AR protein expression” value (AR; VCaP cells) was “No appreciable inhibition” and the “inhibition of PSA protein expression” value (PSA; VCaP cells) was “No appreciable inhibition”.
